Source: patent US9708293B2, “N-(pyridin-2-yl)pyrimidin-4-amine derivatives containing a sulfone group” (BAYER PHARMA AKTIENGESELLSCHAFT, priority 2012, dated 2017)

Experiments:
[1] = biological target: T1, CDK9/CycT1 (Homo sapiens, UniProt P50750); experiment: CDK9/CycT1 kinase assay (Method 1a); assay type: biochemical; conditions: 10 μM ATP
T1 construct: Recombinant full-length His-tagged human CDK9 and CycT1; His; purchased Invitrogen PV4131; host or cells: insect cells
From the text: 1a. CDK9/CycT1 Kinase Assay:
CDK9/CycT1—inhibitory activity of compounds of the present invention was quantified employing the CDK9/CycT1 TR-FRET assay as described in the following paragraphs:
Recombinant full-length His-tagged human CDK9 and CycT1, expressed in insect cells and purified by Ni-NTA affinity chromatography, were purchased from Invitrogen (Cat. No PV4131). As substrate for the kinase reaction biotinylated peptide biotin-Ttds-YISPLKSPYKISEG (C-terminus in amid form) was used which can be purchased e.g. form the company JERINI Peptide Technologies (Berlin, Germany). For the assay 50 nl of a 100 fold concentrated solution of the test compound in DMSO was pipetted into a black low volume 384 well microtiter plate (Greiner Bio-One, Frickenhausen, Germany), 2 μl of a solution of CDK9/CycT1 in aqueous assay buffer [50 mM Tris/HCl pH 8.0, 10 mM MgCl2, 1.0 mM dithiothreitol, 0.1 mM sodium ortho-vanadate, 0.01% (v/v) Nonidet-P40 (Sigma)] were added and the mixture was incubated for 15 min at 22° C. to allow pre-binding of the test compounds to the enzyme before the start of the kinase reaction. Then the kinase reaction was started by the addition of 3 μl of a solution of adenosine-tri-phosphate (ATP, 16.7 μM=>final conc. in the 5 μl assay volume is 10 μM) and substrate (1.67 μM=>final conc. in the 5 μl assay volume is 1 μM) in assay buffer and the resulting mixture was incubated for a reaction time of 25 min at 22° C. […]
The resulting mixture was incubated 1 h at 22° C. to allow the formation of complex between the phosphorylated biotinylated peptide and the detection reagents. Subsequently the amount of phosphorylated substrate was evaluated by measurement of the resonance energy transfer from the Eu-chelate to the streptavidine-XL. Therefore, the fluorescence emissions at 620 nm and 665 nm after excitation at 350 nm was measured in a HTRF reader, e.g. a Rubystar (BMG Labtechnologies, Offenburg, Germany) or a Viewlux (Perkin-Elmer). […]

[2] = system: NCI-H460 cells; experiment: Proliferation assay, NCI-H460; assay type: cell-based; conditions: Homo sapiens, NCI-H460, 96 h; 4 days, crystal violet; read-out: Inhibition of NCI-H460 cell proliferation IC50
Procedure: (§1) Cultivated tumour cells (HeLa, human cervical tumour cells, ATCC CCL-2; NCI-H460, human non-small cell lung carcinoma cells, ATCC HTB-177; A2780, human ovarian carcinoma cells, ECACC #93112519; DU 145, hormone-independent human prostate carcinoma cells, ATCC HTB-81; HeLa-MaTu-ADR, multidrug-resistant human cervical carcinoma cells, EPO-GmbH Berlin; Caco-2, human colorectal carcinoma cells, ATCC HTB-37; B16F10, mouse melanoma cells, ATCC CRL-6475) were plated at a density of 5,000 cells/well (DU145, HeLa-MaTu-ADR), 3,000 cells/well (NCI-H460, HeLa), 2,500 cells/well (A2780), 1,500 cells/well (Caco-2), or 1,000 cells/well (B16F10) in a 96-well multititer plate in 200 μL of their respective growth medium supplemented 10% fetal calf serum. After 24 hours, the cells of one plate (zero-point plate) were stained with crystal violet (see below), while the medium of the other plates was replaced by fresh culture medium (200 μl), to which the test substances were added in various concentrations (0 μM, as well as in the range of 0.001-10 μM; the final concentration of the solvent dimethyl sulfoxide was 0.5%). The cells were incubated for 4 days in the presence of test substances. Cell proliferation was determined by staining the cells with crystal violet: the cells were fixed by adding 20 μl/measuring point of an 11% glutaric aldehyde solution for 15 minutes at room temperature. After three washing cycles of the fixed cells with water, the plates were dried at room temperature. The cells were stained by adding 100 μl/measuring point of a 0.1% crystal violet solution (pH 3.0). After three washing cycles of the stained cells with water, the plates were dried at room temperature. The dye was dissolved by adding 100 μl/measuring point of a 10% acetic acid solution. The extinction was determined by photometry at a wavelength of 595 nm. The change of cell number, in percent, was calculated by normalization of the measured values to the extinction values of the zero-point plate (=0%) and the extinction of the untreated (0 μm) cells (=100%). […]

[3] = system: DU145 cells; experiment: Proliferation assay, DU145; assay type: cell-based; conditions: Homo sapiens, DU-145, 96 h; 4 days, crystal violet; read-out: Inhibition of DU145 cell proliferation IC50
Procedure: as §1

T1 sequence (P50750 whole entry): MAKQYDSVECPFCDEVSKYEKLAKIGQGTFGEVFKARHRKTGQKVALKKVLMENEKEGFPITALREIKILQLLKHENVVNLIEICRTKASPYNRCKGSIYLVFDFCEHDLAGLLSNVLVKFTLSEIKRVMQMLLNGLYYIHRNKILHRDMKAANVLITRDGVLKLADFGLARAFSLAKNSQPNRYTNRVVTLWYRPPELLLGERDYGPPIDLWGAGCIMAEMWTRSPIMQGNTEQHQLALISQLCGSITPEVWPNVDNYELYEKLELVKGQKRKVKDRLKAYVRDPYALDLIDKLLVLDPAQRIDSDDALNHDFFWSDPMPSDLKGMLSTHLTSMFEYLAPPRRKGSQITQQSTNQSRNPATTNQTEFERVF
T1 sequence (O60563 whole entry partner): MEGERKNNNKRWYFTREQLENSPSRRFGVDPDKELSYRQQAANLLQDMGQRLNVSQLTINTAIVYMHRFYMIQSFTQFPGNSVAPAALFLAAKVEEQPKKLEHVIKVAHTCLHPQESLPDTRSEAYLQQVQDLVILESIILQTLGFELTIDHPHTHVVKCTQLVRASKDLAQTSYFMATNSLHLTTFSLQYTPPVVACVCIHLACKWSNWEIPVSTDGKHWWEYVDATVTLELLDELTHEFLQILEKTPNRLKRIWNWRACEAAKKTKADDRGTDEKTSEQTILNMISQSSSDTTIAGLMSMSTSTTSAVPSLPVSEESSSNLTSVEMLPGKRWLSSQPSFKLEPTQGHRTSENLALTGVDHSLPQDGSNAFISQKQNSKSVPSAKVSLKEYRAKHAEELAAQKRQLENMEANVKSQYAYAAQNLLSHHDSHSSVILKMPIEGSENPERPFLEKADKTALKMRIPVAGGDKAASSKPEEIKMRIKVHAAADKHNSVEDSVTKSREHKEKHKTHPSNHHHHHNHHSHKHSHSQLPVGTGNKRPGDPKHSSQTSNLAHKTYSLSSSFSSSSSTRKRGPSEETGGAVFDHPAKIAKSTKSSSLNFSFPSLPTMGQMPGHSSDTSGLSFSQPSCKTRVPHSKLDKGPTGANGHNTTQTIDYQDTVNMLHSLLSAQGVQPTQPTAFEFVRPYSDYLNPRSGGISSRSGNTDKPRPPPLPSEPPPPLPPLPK

Compound | IC50 [1] [nM] | IC50 [2] [nM] | IC50 [3] [nM]
COc1cc(F)ccc1-c1cc(Nc2cc(CS(C)(=O)=O)ccn2)ncn1 [Example 1, 6-(4-Fluoro-2-methoxyphenyl)-N-{4-[(methylsulfonyl)methyl]pyridin-2-yl}pyrimidin-4-amine] | 3 | 317 | 195
COc1cc(F)ccc1-c1cc(Nc2cc(CS(C)(=O)=O)cc(C(F)(F)F)n2)ncn1 [Example 3, 6-(4-Fluoro-2-methoxyphenyl)-N-{4-[(methylsulfonyl)methyl]-6-(trifluoromethyl)pyridin-2-yl}pyrimidin-4-amine] | 4 | 55 | 34
COc1cc(F)ccc1-c1cc(Nc2cc(CS(C)(=O)=O)cc(F)n2)ncn1 [Example 4, 6-(4-Fluoro-2-methoxyphenyl)-N-{6-fluoro-4-[(methylsulfonyl)methyl]pyridin-2-yl}pyrimidin-4-amine] | 3 | – | –
COc1cc(F)ccc1-c1cc(Nc2cc(CS(C)(=O)=O)cc(C)n2)ncn1 [Example 2, 6-(4-Fluoro-2-methoxyphenyl)-N-{6-methyl-4-[(methylsulfonyl)methyl]pyridin-2-yl}pyrimidin-4-amine] | – | 95 | 75
